Test results reported in patent US9221985B2, “Solvent compositions” (TBF Environmental Technology, Inc., priority 2013, dated 2015).
Like-named read-outs stand apart in the source and are kept apart here.

How the values were obtained:
[1] = Hansen solubility parameters
Description: In some embodiments, a solvent composition according to the present disclosure includes an acetate ester, such as MA, EA, or TBAc, in combination with one or more additional reagents to increase dispersion and decrease hydrogen bonding and/or to decrease the polarity of the solvent composition.

[2] = Evaporation rate relative to n-butyl acetate / xylene; assay type: physicochemical
Description: […]. […] Without being bound to any particular theory, the “tail” solvent may slow the drying of a coating towards the end, allowing time for it to flow and level, and preventing dry spray, thereby improving the film appearance.
The evaporation rate of Formulation 1vs xylene was examined (FIG. 1). Formulation 1 was faster evaporating than xylene by a factor of 1.63-1.65. However it was apparent that the evaporation rate of Formulation 1 slowed towards the end. This slower “Tail” would aid in flow and leveling and help prevent dry spray.

[3] = Physical/chemical characteristics of the solvents (specific gravity, flash point, boiling point, viscosity, surface tension, volatility); details: for Surface tension: at 20° C.
[4] = Solvency or reduction characteristics: viscosity of epoxy resin reduced with solvent; assay type: physicochemical
[5] = Viscosity of Paraloid B-66 DMC acrylic resin with reduction in solids; assay type: physicochemical
[6] = cited from earlier work
[7] = relative to n-butyl acetate = 1
[8] = EPON 828 reduced to 95% solids content by weight
[9] = reduced to 35.0% non-volatile with the solvent
[10] = reduced to 40.0% non-volatile with the solvent

| Compound | δD (dispersion) [1] [cal^1/2 cm^−3/2] | δH (hydrogen bonding) [1] [cal^1/2 cm^−3/2] | δP (polar) [1] [cal^1/2 cm^−3/2] | Evaporation rate (n-butyl acetate = 1) [2, 7] | Viscosity @ 20° C. [3] | Specific Gravity (@25° C.) [3] | Flashpoint (TCC) [3] | Surface tension [3] | Viscosity @ 20 RPM ([4]; EPON 828, 50% solids content) [cps] | Viscosity @ 20 RPM ([4]; EPON 828, 55% solids content) [cps] | Viscosity @ 20 RPM ([4]; EPON 828, 60% solids content) [cps] | Viscosity @ 20 RPM ([4]; EPON 828, 65% solids content) [cps] | Viscosity @ 20 RPM ([4]; EPON 828, 70% solids content) [cps] | Viscosity @ 20 RPM ([4]; EPON 828, 75% solids content) [cps] | Viscosity @ 20 RPM ([4]; EPON 828, 80% solids content) [cps] | Viscosity @ 20 RPM ([4]; EPON 828, 85% solids content) [cps] | Viscosity @ 20 RPM ([4]; EPON 828, 90% solids content) [cps] | Viscosity of Paraloid B-66 DMC [5, 9] [cps] | Viscosity of Paraloid B-66 DMC [5, 10] [cps] | Boiling Point [3] | also measured |
| --- | --- | --- | --- | --- | --- | --- | --- | --- | --- | --- | --- | --- | --- | --- | --- | --- | --- | --- | --- | --- | --- |
| Cc1ccccc1 [Toluene, toluene] | 8.8 | 0.98 | 0.68 | 1.9 | 0.59 (mPa · s) cP | 0.86 | 16 °C | 27.73 dyn/cm |  |  |  |  |  |  |  |  |  |  |  |  |  |
| xylene [Xylenes] | 9.2 | 1.15 | 1.3 |  | 0.34-0.8 (mPa · s) cP | 0.87 | 17-25 °C | 25.32-28.27 dyn/cm | 13 | 17 | 19 | 28 | 40 | 76 | 148 | 330 | 880 | 580 | 1500 | 110.6-144 °C | Evaporation rate (n-butyl acetate = 1) [2]: 0.9; Viscosity @ 20 RPM [4, 8]: 3350 cps; Flashpoint (TCC) ([3]; listed as xylene): 30 °C |
| COC(=O)OC [DMC, dimethyl carbonate] |  |  |  |  |  |  |  |  |  |  |  |  |  |  |  |  |  | 370 | 970 |  |  |
| FC(F)(F)c1ccc(Cl)cc1 [PCBTF, parachlorobenzotrifluoride] | 8.8 | 1.9 | 2.9 | 0.9 | 0.79 (mPa · s) cP | 1.34 | 109 °C | 25 dyn/cm | 27 | 38 | 52 | 91 | 153 | 278 | 544 | 1010 | 1900 | 450 | 1050 | 139 °C | δ (Hansen solubility parameter) [1]: 9.15 cal^1/2 cm^−3/2; Viscosity @ 20 RPM [4, 8]: 5125 cps |
| CC(=O)OC(C)(C)C [TBAc, tert-butyl acetate] | 7 | 2.9 | 1.7 |  | 0.7 (mPa · s) cP | 0.87 | 16.7 °C | 22.4 dyn/cm | 15 | 19 | 22 | 26 | 81 | 93 | 192 | 430 | 1150 | 290 | 780 | 98 °C | Evaporation rate (n-butyl acetate = 1) [2]: 2.8; Viscosity @ 20 RPM [4, 8]: 4250 cps |
| COC(C)=O [MA, methyl acetate] | 7.6 | 3.7 | 3.5 | 6.2 | 0.37 (mPa · s) cP | 0.93 | −4 °C | 24.8 dyn/cm |  |  |  |  |  |  |  |  |  |  |  | 56 °C | δ (Hansen solubility parameter) [1]: 9.5 cal^1/2 cm^−3/2; solubility in water ([6]; in water at room temperature): 25%; stability ([6]; strong aqueous bases or aqueous acids): not stable in the presence of strong aqueous bases or aqueous acids |
